Results taken from US20250222108A1, “MEDICAL AGENT INCLUDING ADJUVANT AND COMPOSITE OF PHOTOSENSITIVE MOLECULE AND MOLECULE BINDING TO CANCER-SPECIFIC CELL SURFACE MOLECULE” (KYOTO UNIVERSITY, priority 2021, published 2025).

Test system: KPC-N cells
Assay: Antitumor effect by TLR3 ligand, pancreatic cancer model
Type: in vivo, C57BL/6 mice
Settings: 50 μg intratumoral on day 8; N=6
Procedure: PolyI:C (Poly (I:C) (HMW) VacciGrade™: InvivoGen), which is a TLR3 ligand, was used.
1.5×10^6 KPC-N cells were subcutaneously transplanted to the back of 6- to 8-week-old C57BL/6 mice, and two groups (each group N=6) of non-treatment group (Control) and polyI:C group were established. To the tumor of the mice on day 8 after subcutaneous transplantation was topically injected (intratumoral administration) 50 μg of polyI:C.

## polyI:C
  antitumor effect (tumor size): no antitumor effect
